System: white blood cell count (WBC)
Settings: preliminary results
Experimental: Additionally, ALDH levels in the target peripheral lymphocytes of high-dose cyclophosphamide treatment may render those cells resistant to cyclophosphamide and can lead to worsened clinical outcome or disease relapse. In a series of multiple sclerosis (MS) patients, blood was analyzed to determine the relative levels of aldehyde dehydrogenease. The banked blood was obtained from MS patients prior to treatment with high-dose cyclophosphamide.

In the case of O=P1(N(CCCl)CCCl)NCCCO1 (centres unmarked) [cyclophosphamide], the “nadir WBC following high-dose cyclophosphamide treatment” value (MS patient who did not respond and relapsed, higher ALDH activity in banked blood) is reported as 24 and the “WBC reached following high-dose cyclophosphamide treatment” value (MS patient who responded, much lower ALDH activity in banked blood) is reported as 0.
